ChEMBL document CHEMBL1212725, “Enzymatic transition states and dynamic motion in barrier crossing” (Nat Chem Biol, 2009)

Experiments:
[1] = molecular target: T1, Purine nucleoside phosphorylase (Homo sapiens, UniProt P00491); experiment: Binding affinity to human PNP
T1 sequence (P00491 whole entry): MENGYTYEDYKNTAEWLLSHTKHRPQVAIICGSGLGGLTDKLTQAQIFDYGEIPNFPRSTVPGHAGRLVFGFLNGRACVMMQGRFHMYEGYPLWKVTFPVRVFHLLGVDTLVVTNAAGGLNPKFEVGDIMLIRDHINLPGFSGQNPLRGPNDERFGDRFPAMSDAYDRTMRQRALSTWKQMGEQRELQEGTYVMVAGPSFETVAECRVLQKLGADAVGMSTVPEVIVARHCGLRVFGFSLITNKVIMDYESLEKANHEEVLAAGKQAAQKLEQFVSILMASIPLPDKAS

[2] = molecular target: T2, Purine nucleoside phosphorylase (Homo sapiens) (UniProt P00491); experiment: Binding affinity to human PNP assessed as kinetic isotope effect; settings: tested as the 3H-labelled form
T2 sequence (whole entry): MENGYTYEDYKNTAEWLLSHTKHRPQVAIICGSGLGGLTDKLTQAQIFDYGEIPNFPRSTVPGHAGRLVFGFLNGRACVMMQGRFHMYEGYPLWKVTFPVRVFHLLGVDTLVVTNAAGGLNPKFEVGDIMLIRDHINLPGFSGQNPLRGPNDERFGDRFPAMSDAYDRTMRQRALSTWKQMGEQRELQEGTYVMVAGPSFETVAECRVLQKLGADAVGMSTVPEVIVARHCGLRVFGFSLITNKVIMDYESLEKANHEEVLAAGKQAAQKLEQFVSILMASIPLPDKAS

[3] = substrate: O=c1[nH]cnc2c1ncn2[C@@H]1O[C@H](CO)[C@@H](O)[C@H]1O; experiment: Activity at human PNP

With `[3H]C(O)[C@H]1CN(Cc2c[nH]c3c(=O)[nH]cnc23)C[C@@H]1O` (stereo partly drawn) the Kd [1] was 8.5 pM.

Work on `O=c1[nH]cnc2c1ncn2[C@@H]1O[C@H](CO)[C@@H](O)[C@H]1O` yielded an Activity [2] of 4.7%.

B1: Purine nucleoside phosphorylase (Homo sapiens), P00491 (protein)
chain: MENGYTYEDYKNTAEWLLSHTKHRPQVAIICGSGLGGLTDKLTQAQIFDYGEIPNFPRSTVPGHAGRLVFGFLNGRACVMMQGRFHMYEGYPLWKVTFPVRVFHLLGVDTLVVTNAAGGLNPKFEVGDIMLIRDHINLPGFSGQNPLRGPNDERFGDRFPAMSDAYDRTMRQRALSTWKQMGEQRELQEGTYVMVAGPSFETVAECRVLQKLGADAVGMSTVPEVIVARHCGLRVFGFSLITNKVIMDYESLEKANHEEVLAAGKQAAQKLEQFVSILMASIPLPDKAS
For B1, the Km [3] was 40 µM.
